Laboratory results taken from patent US8916702B2 (priority 2012, dated 2014).
Like-named read-outs stand apart in the source and are kept apart here.

Tested on: HCV pseudoparticles (genotype 1a HCV E1 and E2 envelope, H77C isolate)
Assay: microbe, parasite or virus in culture
Type: cell-based
Settings: Hepatitis C virus
[1] = Huh-7, 48 h, read-out: Activity (EC50 class), HCV pseudoparticle infection of Huh7 cells, luciferase 2 days after infection, EC50 expressed as class A/B
[2] = Huh-7, read-out: Activity (EC50 class), HCV pseudoparticles (genotype 1a, H77C) in Huh7 cells, EC50 expressed as class A/B
[3] = Huh-7, 48 h, HCV pseudoparticles (genotype 1a, H77C) in Huh7 cells, average of duplicate, luciferase 2 days after infection
[4] = Huh-7, 48 h, HCV pseudoparticle infection of Huh7 cells, luciferase 2 days after infection, average of duplicates
[5] = Huh-7, 48 h, read-out: Activity (EC50 class), HCV pseudoparticles, Huh7 cells, luciferase 2 days after infection, average of duplicates

SMILES | EC50 [1] [nM] | EC50 [2] [nM] | other results
CC(C)(CNC(=O)C(=O)Nc1ccc(O)cc1)CNC(=O)c1ccc(Nc2nc(NCc3ccc(O)cc3)nc(OCC(F)(F)F)n2)cc1 [Compound 1496] | 0.01 to 10 | – | –
COC(=O)[C@H](CNC(=O)C(=O)Nc1ccc(Oc2ccncc2)cc1)NC(=O)c1ccc(Nc2nc(NC3(c4ccc(Cl)cc4)CC3)nc(OCC(F)(F)F)n2)cc1 [Compound 3206] | – | 0.01 to 10 | –
O=C(NCC1(CNC(=O)c2ccc(Nc3nc(NC4(c5ccc(Cl)cc5)CC4)nc(OCC(F)(F)F)n3)cc2)CC1)C(=O)Nc1ccc(F)cc1 [Compound 1566] | 0.01 to 10 | – | –
CCOC(=O)C(=O)NC[C@H](NC(=O)c1ccc(Nc2nc(NC3(c4ccc(Cl)cc4)CC3)nc(OCC(F)(F)F)n2)cc1)C(=O)OC [Compound 1001, (S)-methyl 2-(4-(4-(1-(4-chlorophenyl)cyclopropylamino)-6-(2,2,2-trifluoroethoxy)-1,3,5-triazin-2-ylamino)benzamido)-3-(2-ethoxy-2-oxoacetamido)propanoate] | 10 to 1000 | – | –
CC(C)(CNC(=O)c1ccc(Nc2nc(NC3(c4ccc(Cl)cc4)CC3)nc(OCC(F)(F)F)n2)cc1)NC(=O)C(=O)Nc1nccs1 [Compound 3437] | – | 0.01 to 10 | –
O=C(NCC[C@H](NC(=O)c1ccc(Nc2nc(NC3(c4ccc(Cl)cc4)CC3)nc(OCC(F)(F)F)n2)cc1)C(=O)O)C(=O)NCC1(CO)CC1 [Compound 1424] | 0.01 to 10 | – | –
CC(C)(CNC(=O)C(=O)NOc1ccccc1)CNC(=O)c1ccc(Nc2nc(NC3(c4ccc(Cl)cc4)CC3)nc(OCC(F)(F)F)n2)cc1 [Compound 3064] | – | 0.01 to 10 | –
O=C(NCC(O)CNC(=O)c1ccc(Nc2nc(NC3(c4ccc(Cl)cc4)CC3)nc(OCC(F)(F)F)n2)cc1)C(=O)Nc1ccc(F)cc1 (stereo not drawn) [Compound 3365] | – | 0.01 to 10 | EC50 [3]: 0.024 nM
COC(=O)/C(CCNC(=O)C(=O)Nc1cccc(S(C)(=O)=O)c1)=N\C(=O)c1ccc(Nc2nc(NC3(c4ccc(Cl)cc4)CC3)nc(OCC(F)(F)F)n2)cc1 [Compound 3588] | – | 0.01 to 10 | –
Cc1noc2ccc(NC(=O)C(=O)NCC(C)(C)CNC(=O)c3ccc(Nc4nc(NC5(c6ccc(Cl)cc6)CC5)nc(OCC(F)(F)F)n4)cc3F)cc12 [Compound 3565] | – | 0.01 to 10 | –
NC(=O)C(=O)NCCNC(=O)c1ccc(Nc2nc(NC3(c4ccc(Cl)cc4)CC3)nc(OCC(F)(F)F)n2)cc1 [Compound 3380] | – | 0.01 to 10 | –
COC(=O)[C@H](CCNC(=O)C(=O)NCC1CCc2ccccc21)NC(=O)c1ccc(Nc2nc(NC3(c4ccc(Cl)cc4)CC3)nc(OCC(F)(F)F)n2)cc1 (stereo partly drawn) [Compound 1324] | 0.01 to 10 | – | –
COC(=O)[C@H](CNC(=O)C(=O)NC1CCCC(C)C1)NC(=O)c1ccc(Nc2nc(NC3(c4ccc(Cl)cc4)CC3)nc(OCC(F)(F)F)n2)cc1 (stereo partly drawn) [Compound 1059] | 0.01 to 10 | – | –
O=C(NCC[C@H](NC(=O)c1ccc(Nc2nc(NC3(c4ccc(Cl)cc4)CC3)nc(OCC(F)(F)F)n2)cc1)C(=O)O)C(=O)NCCn1cncn1 [Compound 1342] | 0.01 to 10 | – | –
COC(=O)[C@H](CNC(=O)C(=O)Nc1ccc(OC)cc1)NC(=O)c1ccc(Nc2nc(NC3(c4ccc(Cl)cc4)CC3)nc(OCC(F)(F)F)n2)cc1 [Compound 1254] | 0.01 to 10 | – | EC50 [4]: 0.37 nM
CC(CNC(=O)C(=O)Nc1cccc(F)c1)CNC(=O)c1ccc(Nc2nc(NC3(c4ccc(Cl)cc4)CC3)nc(OCC(F)(F)F)n2)cc1 (stereo not drawn) [Compound 3348] | – | 0.01 to 10 | –
CC(C)(C)OC(=O)NC1CCC(CNC(=O)C(=O)NCC[C@H](NC(=O)c2ccc(Nc3nc(NC4(c5ccc(Cl)cc5)CC4)nc(OCC(F)(F)F)n3)cc2)C(=O)O)CC1 (stereo partly drawn) [Compound 1210] | 0.01 to 10 | – | –
O=C(NCC[C@@H](NC(=O)c1ccc(Nc2nc(NC3(c4ccc(Cl)cc4)CC3)nc(OCC(F)(F)F)n2)cc1)C(=O)O)C(=O)Nc1ccccc1-c1ccccc1 [Compound 1532] | 0.01 to 10 | – | –
CC(C)(CNC(=O)C(=O)Nc1ccc(C2CCCCC2)cc1)CNC(=O)c1ccc(Nc2nc(NC3(c4ccc(Cl)cc4)CC3)nc(OCC(F)(F)F)n2)cc1 [Compound 1584] | 0.01 to 10 | – | –
CC(C)(CNC(=O)C(=O)Nc1ccc(Cl)cc1)CNC(=O)c1ccc(Nc2nc(NC3(c4ccc(Cl)cc4)CC3)nc(OCC(F)(F)F)n2)cc1 [Compound 1559] | 0.01 to 10 | – | –
CC(C)(CNC(=O)C(=O)Nc1ccc2c(c1)CCC2=O)CNC(=O)c1ccc(Nc2nc(NC3(c4ccc(Cl)cc4)CC3)nc(OCC(F)(F)F)n2)cc1 [Compound 3355] | – | 0.01 to 10 | –
COC(=O)[C@H](CNC(=O)C(=O)N[C@H](C)C1CCCCC1)NC(=O)c1ccc(Nc2nc(NC3(c4ccc(Cl)cc4)CC3)nc(OCC(F)(F)F)n2)cc1 [Compound 1455] | 0.01 to 10 | – | –
O=C(NC/C(=N/C(=O)c1ccc(Nc2nc(NC3(c4ccc(Cl)cc4)CC3)nc(OCC(F)(F)F)n2)cc1)C(=O)O)C(=O)Nc1ccc(N2CCOCC2)cc1 [Compound 3148] | – | 0.01 to 10 | –

SMILES | EC50 [1] [nM] | EC50 [2] [nM] | other results
O=C(NCCc1c[nH]cn1)C(=O)NCC[C@H](NC(=O)c1ccc(Nc2nc(NC3(c4ccc(Cl)cc4)CC3)nc(OCC(F)(F)F)n2)cc1)C(=O)O [Compound 1339] | 0.01 to 10 | – | –
COC(=O)[C@H](CNC(=O)C(=O)Nc1cccc(-c2ccnc(C)n2)c1)NC(=O)c1ccc(Nc2nc(NC3(c4ccc(Cl)cc4)CC3)nc(OCC(F)(F)F)n2)cc1 [Compound 3700] | – | – | EC50 [5]: 0.01 to 10 nM
Cc1ccc(NC(=O)C(=O)NCC(C)(C)CNC(=O)c2ccc(Nc3nc(NC4(c5ccc(Cl)cc5)CC4)nc(OCC(F)(F)F)n3)cc2)c(C(F)(F)F)c1 [Compound 3455] | – | 0.01 to 10 | –
O=C(NCC[C@H](NC(=O)c1ccc(Nc2nc(NC3(c4ccc(Cl)cc4)CC3)nc(OCC(F)(F)F)n2)cc1)C(=O)O)C(=O)Nc1cccc(C(F)(F)F)c1 [Compound 1271] | 0.01 to 10 | – | –
O=C(NCC[C@H](NC(=O)c1ccc(Nc2nc(NC3(c4ccc(Cl)cc4)CC3)nc(OCC(F)(F)F)n2)cc1)C(=O)O)C(=O)Nc1cccc(OC(F)(F)F)c1 [Compound 3619] | – | – | EC50 (Huh-7, 48 h, HCV pseudoparticles, Huh7 cells, luciferase 2 days after infection, average of duplicates): 0.084 nM; EC50 [5]: 0.01 to 10 nM
COC(=O)C(CNC(=O)C(=O)NC1CCCC(NC(=O)OC(C)(C)C)C1)NC(=O)c1ccc(Nc2nc(NC3(c4ccc(Cl)cc4)CC3)nc(OCC(F)(F)F)n2)cc1 (stereo not drawn) [Compound 1053] | 0.01 to 10 | – | –
CC(C)(CNC(=O)C(=O)Nc1ccccc1C(=O)c1ccccc1)CNC(=O)c1ccc(Nc2nc(NC3(c4ccc(Cl)cc4)CC3)nc(OCC(F)(F)F)n2)cc1 [Compound 3141] | – | 0.01 to 10 | EC50 [3]: 0.11 nM
COC(=O)[C@@H](CCNC(=O)C(=O)NCC1(NC(=O)OC(C)(C)C)CC1)NC(=O)c1ccc(Nc2nc(NC3(c4ccc(Cl)cc4)CC3)nc(OCC(F)(F)F)n2)cc1 [Compound 1381] | 0.01 to 10 | – | –
CC(C)(C)C1CCC(NC(=O)C(=O)NCC[C@H](NC(=O)c2ccc(Nc3nc(NC4(c5ccc(Cl)cc5)CC4)nc(OCC(F)(F)F)n3)cc2)C(=O)O)CC1 (stereo partly drawn) [Compound 1128] | 0.01 to 10 | – | –
CC(C)(CNC(=O)C(=O)Nc1ccccc1Cl)CNC(=O)c1ccc(Nc2nc(NC3(c4ccc(Cl)cc4)CC3)nc(OCC(F)(F)F)n2)cc1 [Compound 1571] | 0.01 to 10 | – | EC50 [4]: 0.05 nM
COc1ccc(CNC(=O)C(=O)NCC[C@H](NC(=O)c2ccc(Nc3nc(NC4(c5ccc(Cl)cc5)CC4)nc(OCC(F)(F)F)n3)cc2)C(=O)O)c(OC)c1 [Compound 1194] | 0.01 to 10 | – | –
O=C(NCC[C@H](NC(=O)c1ccc(Nc2nc(NC3(c4ccc(Cl)cc4)CC3)nc(OCC(F)(F)F)n2)cc1)C(=O)O)C(=O)Nc1ccc(-n2ccc(C(F)(F)F)n2)cc1 [Compound 3228] | – | 0.01 to 10 | –
CC(C)CNC(=O)C(=O)NC(C)(C)CNC(=O)c1ccc(Nc2nc(NC3(c4ccc(Cl)cc4)CC3)nc(OCC(F)(F)F)n2)cc1 [Compound 3442] | – | 0.01 to 10 | –
COc1cc(NC(=O)C(=O)NCC(C)(C)CNC(=O)c2ccc(Nc3nc(NC4(c5ccc(Cl)cc5)CC4)nc(OCC(F)(F)F)n3)cc2)ccc1-c1ccccc1 [Compound 3679] | – | – | EC50 [5]: 0.01 to 10 nM
O=C(NCCc1c[nH]cn1)C(=O)NC[C@H](NC(=O)c1ccc(Nc2nc(NC3(c4ccc(Cl)cc4)CC3)nc(OCC(F)(F)F)n2)cc1)C(=O)O [Compound 1407] | 0.01 to 10 | – | –
COC(=O)[C@@H](CCNC(=O)C(=O)Nc1cccc(-c2cnco2)c1)NC(=O)c1ccc(Nc2nc(NC3(c4ccc(Cl)cc4)CC3)nc(OCC(F)(F)F)n2)cc1 [Compound 3579] | – | 0.01 to 10 | –
Cc1ccc(-c2cccc(NC(=O)C(=O)NCC[C@H](NC(=O)c3ccc(Nc4nc(NC5(c6ccc(Cl)cc6)CC5)nc(OCC(F)(F)F)n4)cc3)C(=O)O)c2)cc1 [Compound 3644] | – | – | EC50 [5]: 0.01 to 10 nM
COC(=O)[C@@H](CCNC(=O)C(=O)Nc1cccc(-c2ccnc(C)n2)c1)NC(=O)c1ccc(Nc2nc(NC3(c4ccc(Cl)cc4)CC3)nc(OCC(F)(F)F)n2)cc1 [Compound 3583] | – | 0.01 to 10 | –
O=C(NCCc1ccccn1)C(=O)NCC[C@H](NC(=O)c1ccc(Nc2nc(NC3(c4ccc(Cl)cc4)CC3)nc(OCC(F)(F)F)n2)cc1)C(=O)O [Compound 1326] | 0.01 to 10 | – | –
CC1CCCCC1NC(=O)C(=O)NCC[C@H](NC(=O)c1ccc(Nc2nc(NC3(c4ccc(Cl)cc4)CC3)nc(OCC(F)(F)F)n2)cc1)C(=O)O (stereo partly drawn) [Compound 1124] | 0.01 to 10 | – | –
COC(=O)[C@H](CCNC(=O)C(=O)Nc1ccc(-c2ccc(-c3ccccc3)cc2)cc1)NC(=O)c1ccc(Nc2nc(NC3(c4ccc(Cl)cc4)CC3)nc(OCC(F)(F)F)n2)cc1 [Compound 1527] | 0.01 to 10 | – | EC50 [4]: 0.15 nM
O=C(NCC[C@H](NC(=O)c1ccc(Nc2nc(NC3(c4ccc(Cl)cc4)CC3)nc(OCC(F)(F)F)n2)cc1)C(=O)O)C(=O)Nc1ccc(O)nc1 [Compound 3646] | – | – | EC50 [5]: 0.01 to 10 nM
